Test results taken from patent US9474780B2, “GIP and GLP-1 co-agonist compounds” (Eli Lilly and Company, priority 2015, dated 2016).
Numbered stars: 1 amine (or outer) side, 2 acyl side, 3 side chain; on linkers, the order of the positions; unused ones are H or OH. Square brackets hold non-standard residues; d marks the D form. Side chains are listed from the residue outwards. Peptide text beside a SMILES is read from it. * marks the point of attachment. C20 diacid = O=C(O)CCCCCCCCCCCCCCCCCCC(=O)*; γGlu = O=C(O)[C@H](CCC(=O)[*:2])N[*:1]; 1Nal = N[C@@H](Cc1cccc2ccccc12)C(=O)O; AEEA = NCCOCCOCC(=O)O; Aib = CC(C)(N)C(=O)O

Columns and labels:
human GLP-1R [1] = target: T1, human GLP-1R (Homo sapiens, UniProt P43220); assay: Functional hGLP-1R cAMP assay in HEK-293 clonal cells; format: cell-based; conditions: HEK293; percent of maximal response of hGLP-1(7-36)NH2
T1 construct: expressed in transfected cells; host or cells: 293HEK, Hygromycin-selected; crude plasma membranes
T1 sequence (P43220 24-463): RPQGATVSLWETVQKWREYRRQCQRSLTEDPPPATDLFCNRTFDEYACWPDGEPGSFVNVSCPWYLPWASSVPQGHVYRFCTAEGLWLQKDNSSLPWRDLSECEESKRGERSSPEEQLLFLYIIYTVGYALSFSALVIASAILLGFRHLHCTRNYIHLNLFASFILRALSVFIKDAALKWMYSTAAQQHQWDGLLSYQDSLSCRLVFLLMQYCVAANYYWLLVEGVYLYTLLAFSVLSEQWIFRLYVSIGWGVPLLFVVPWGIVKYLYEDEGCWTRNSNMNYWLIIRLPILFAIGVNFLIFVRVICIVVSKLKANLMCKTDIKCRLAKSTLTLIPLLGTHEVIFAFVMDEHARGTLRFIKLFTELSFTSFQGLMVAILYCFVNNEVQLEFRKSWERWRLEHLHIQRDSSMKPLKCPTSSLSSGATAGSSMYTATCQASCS
Experimental: After an incubation of 60 minutes at room temperature, the resulting increase in intracellular cAMP is quantitatively determined using the CisBio cAMP Dynamic 2 HTRF Assay Kit (Bedford, Mass.). Briefly, cAMP levels within the cell are detected by adding the cAMP-d2 conjugate in cell lysis buffer (20 μl) followed by the antibody anti-cAMP-Eu^3+-Cryptate, also in cell lysis buffer (20 μl). The resulting competitive assay is incubated for at least 60 minutes at room temperature, then detected using a PerkinElmer Envision® instrument with excitation at 320 nm and emission at 665 nm and 620 nm Envision units (emission at 665 nm/620 nm*10,000) are inversely proportional to the amount of cAMP present and are converted to nM cAMP per well using a cAMP standard curve. […] A relative EC50 value and percent top (Emax) is derived by non-linear regression analysis using the percent maximal response versus the concentration of the compound of the present invention, fitted to a four-parameter logistic equation.

[2] = Pharmacokinetics in cynomolgus monkeys; format: in vivo; conditions: cynomolgus monkey, plasma, single SC 0.2 mg/kg, male monkeys, n = 2; for AUC(0-inf): read-out: Mean AUC0-inf; for half-life: read-out: Mean T1/2 (converted); for Tmax: read-out: Mean Tmax
Experimental: The compounds are administered by a single intravenous or subcutaneous dose (0.2 mg/kg) in 20 mM citrate buffer (pH 7.0) at a volume of 0.21 ml/kg. Blood is collected from each animal at 2, 4, 8, 12, 24, 48, 72, 96, 120, 144, 168, 204, 240, and 312 hours post-dosage. The plasma concentrations of compounds of the present invention are determined by a LC/MS method. Briefly, a compound of the present invention is extracted from 100% Monkey plasma sample (50 μl) diluted with 1×PBS (150 μl) and mixed with N-butanol (400 μl). Three distinct liquid layers are formed with the compound located in the top layer. A volume of 200 μl is transferred to a v-bottom 96-well plate, dried down using heated Nitrogen gas and reconstituted with 100 μl of 30% acetonitrile/0.1% formic acid. 20 μl of the reconstituted sample is injected onto a Supelco Analytical Discovery bio wide C5 3 μm column. The column effluent is directed into a Thermo Q-Exactive mass spectrometer for detection and quantitation.

Human GCGR = Human GCGR (Homo sapiens, UniProt P47871); assay: Functional hGCGR cAMP assay in HEK-293 clonal cells
Sequence of Human GCGR (P47871 26-477): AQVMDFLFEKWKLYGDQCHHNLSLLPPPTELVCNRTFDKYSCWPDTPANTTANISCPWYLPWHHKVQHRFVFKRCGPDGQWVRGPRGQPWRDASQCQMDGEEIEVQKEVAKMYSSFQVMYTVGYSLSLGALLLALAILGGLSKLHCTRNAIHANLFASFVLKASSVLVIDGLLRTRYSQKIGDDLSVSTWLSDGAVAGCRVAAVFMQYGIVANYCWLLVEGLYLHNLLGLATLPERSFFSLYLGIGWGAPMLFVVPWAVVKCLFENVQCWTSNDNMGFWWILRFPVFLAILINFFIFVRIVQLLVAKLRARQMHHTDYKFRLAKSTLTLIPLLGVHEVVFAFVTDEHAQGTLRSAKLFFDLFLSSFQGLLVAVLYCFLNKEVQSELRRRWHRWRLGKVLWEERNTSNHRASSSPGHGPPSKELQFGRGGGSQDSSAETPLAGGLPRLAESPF

human GIP-R = target: T2, human GIP-R (Homo sapiens, UniProt P48546); assay: Functional hGIP-R cAMP assay in HEK-293 clonal cells; conditions: HEK293, read-out: Human GIP-R Emax
T2 sequence (P48546 22-466): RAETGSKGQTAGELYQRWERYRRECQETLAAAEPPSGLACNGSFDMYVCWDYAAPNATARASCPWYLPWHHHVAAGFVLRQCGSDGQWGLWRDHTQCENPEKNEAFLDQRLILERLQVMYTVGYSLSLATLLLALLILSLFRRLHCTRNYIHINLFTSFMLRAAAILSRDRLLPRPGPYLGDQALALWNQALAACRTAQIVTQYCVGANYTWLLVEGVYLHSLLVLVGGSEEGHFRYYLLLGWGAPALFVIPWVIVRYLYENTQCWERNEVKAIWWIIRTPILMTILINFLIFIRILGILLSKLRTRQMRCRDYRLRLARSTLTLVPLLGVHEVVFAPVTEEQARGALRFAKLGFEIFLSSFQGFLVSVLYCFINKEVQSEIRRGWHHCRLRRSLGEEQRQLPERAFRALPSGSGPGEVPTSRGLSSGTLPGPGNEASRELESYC

[3] = Rat in vivo insulin secretion following intravenous glucose (IVGTT); conditions: s.c. 16 hour prior to glucose
Experimental: Male Wistar rats (Harlan Labs, Indianapolis, Ind.) are randomized by body weight and dosed 1.5 ml/kg s.c. 16 hour prior to glucose administration and then fasted. Doses are vehicle, 0.1, 0.3, 1, 3 and 10 nmol/kg. Animals are weighed, and then anesthetized with sodium pentobarbital (Nembutal Sodium solution; Ovation Pharmaceuticals) dosed i.p. (65 mg/kg, 30 mg/ml). A time zero blood sample is collected into EDTA tubes after which glucose is administered ([…], 5 ml/kg). Blood samples are collected at 2, 4, 6, 10, 20, and 30 minutes post glucose. Plasma glucose levels are determined using a Hitachi analyzer (Roche) and plasma insulin is measured by the MSD insulin assay (Meso Scale, Gaithersburg, Md.).

[4] = Weight loss, body composition and hepatic steatosis in DIO mice; format: in vivo, mouse; conditions: for Blood Glucose: Day 15
Experimental: The effects on weight loss, body composition and hepatic steatosis in DIO mice for compounds of the present invention are evaluated in C57/BL6 DIO mice. […] Animals are individually housed in a temperature-controlled (24° C.) facility with a 12 hour light/dark cycle (lights on 22:00), and free access to food and water. […] Daily body weight and food intake are measured throughout the study. Absolute changes in body weight are calculated by subtracting the body weight of the same animal prior to the first injection of compound. […] On Day 15, blood glucose is measured with Accu-Chek glucometer (Roche) from tail vein blood and then animals may be sacrificed and livers removed and frozen. Liver triglycerides, determined from homogenates of livers collected at sacrifice, and plasma cholesterol are measured on a Hitachi Modular P clinical analyzer. Statistical comparisons between groups are done using one-way ANOVA followed by Dunnett's multiple comparison test. The ED50 for weight loss lowering is determined in GraphPad Prism using the non-linear fit tool.

human GLP-1R [5] = target: T1, human GLP-1R; format: binding

CC[C@H](C)[C@H](NC(=O)[C@H](CC(C)C)NC(=O)[C@H](Cc1c[nH]c2ccccc12)NC(=O)[C@H](CCC(N)=O)NC(=O)[C@@H](NC(=O)[C@H](Cc1cccc2ccccc12)NC(=O)[C@H](C)NC(=O)[C@H](CCCCNC(=O)COCCOCCNC(=O)COCCOCCNC(=O)CC[C@H](NC(=O)CC[C@H](NC(=O)CCCCCCCCCCCCCCCCCCC(=O)O)C(=O)O)C(=O)O)NC(=O)[C@H](CCC(N)=O)NC(=O)[C@H](C)NC(=O)[C@@H](NC(=O)[C@H](CCCCN)NC(=O)[C@H](CC(=O)O)NC(=O)[C@H](CC(C)C)NC(=O)C(C)(C)NC(=O)[C@@H](NC(=O)[C@H](CO)NC(=O)[C@H](Cc1ccc(O)cc1)NC(=O)[C@H](CC(=O)O)NC(=O)[C@H](CO)NC(=O)[C@@H](NC(=O)[C@H](Cc1ccccc1)NC(=O)[C@@H](NC(=O)CNC(=O)[C@H](CCC(=O)O)NC(=O)C(C)(C)NC(=O)[C@@H](N)Cc1ccc(O)cc1)[C@@H](C)O)[C@@H](C)O)[C@@H](C)CC)[C@@H](C)CC)C(C)C)C(=O)N[C@@H](C)C(=O)NCC(=O)NCC(=O)N1CCC[C@H]1C(=O)N[C@@H](CO)C(=O)N[C@@H](CO)C(=O)NCC(=O)N[C@@H](C)C(=O)N1CCC[C@H]1C(=O)N1CCC[C@H]1C(=O)N1CCC[C@H]1C(=O)N[C@@H](CO)C(N)=O [Example 2] (H-Y[Aib]EGTFTSDYSI[Aib]LDKIAQK([AEEA-AEEA-γGlu-γGlu-C20 diacid])A[1Nal]VQWLIAGGPSSGAPPPS-NH2)
Emax (human GLP-1R [1]): 98.2 ± 5.5% | CL/F [2]: 1.2 mL/h/kg | Cmax [2]: 2100 ng/mL | AUC(0-inf) [2]: 173 µg·h/mL | half-life [2]: 43 h | Tmax [2]: 24 h | EC50 (Human GCGR): > 1000 nM | Emax (human GIP-R): 94.7 ± 2%

CC[C@H](C)[C@H](NC(=O)[C@H](CC(C)C)NC(=O)[C@H](Cc1c[nH]c2ccccc12)NC(=O)[C@H](CCC(N)=O)NC(=O)[C@@H](NC(=O)[C@H](Cc1ccccc1)NC(=O)[C@H](C)NC(=O)[C@H](CCCCNC(=O)COCCOCCNC(=O)COCCOCCNC(=O)CC[C@H](NC(=O)CC[C@H](NC(=O)CCCCCCCCCCCCCCCCCCC(=O)O)C(=O)O)C(=O)O)NC(=O)[C@H](CCC(N)=O)NC(=O)[C@H](C)NC(=O)[C@@H](NC(=O)[C@H](CCCCN)NC(=O)[C@H](CC(=O)O)NC(=O)[C@H](CC(C)C)NC(=O)C(C)(C)NC(=O)[C@@H](NC(=O)[C@H](CO)NC(=O)[C@H](Cc1ccc(O)cc1)NC(=O)[C@H](CC(=O)O)NC(=O)[C@H](CO)NC(=O)[C@@H](NC(=O)[C@H](Cc1ccccc1)NC(=O)[C@@H](NC(=O)CNC(=O)[C@H](CCC(=O)O)NC(=O)C(C)(C)NC(=O)[C@@H](N)Cc1ccc(O)cc1)[C@@H](C)O)[C@@H](C)O)[C@@H](C)CC)[C@@H](C)CC)C(C)C)C(=O)N[C@@H](C)C(=O)NCC(=O)NCC(=O)N1CCC[C@H]1C(=O)N[C@@H](CO)C(=O)N[C@@H](CO)C(=O)NCC(=O)N[C@@H](C)C(=O)N1CCC[C@H]1C(=O)N1CCC[C@H]1C(=O)N1CCC[C@H]1C(=O)N[C@@H](CO)C(N)=O [Example 5]
Emax (human GLP-1R [1]): 105 ± 4% | % max increase of insulin AUC [3]: 349 +/− 39% | ED50 for insulin, rat IVGTT [3]: 1.02 nmol/kg | % Change from starting body weight ([4]; Table 9, 10 nmol/kg): −23.42 ± 1.43 % | % Change from starting fat mass ([4]; Table 9, 10 nmol/kg): −51.28 ± 1.89 % | % Change from starting body weight ([4]; Table 9, 30 nmol/kg): −26.84 ± 3.14 % | % Change from starting fat mass ([4]; Table 9, 30 nmol/kg): −62.77 ± 5.49 % | % Change from starting body weight ([4]; Table 9, 100 nmol/kg): −37.86 ± 2.25 % | % Change from starting fat mass ([4]; Table 9, 100 nmol/kg): −81.08 ± 1.68 % | Liver Triglycerides ([4]; Table 12, 10 nmol/kg): 48.30 ± 8.14 mg/g tissue | Plasma Cholesterol ([4]; Table 12, 10 nmol/kg): 126.6 ± 9.67 mg/dL | Blood Glucose ([4]; Table 12, 10 nmol/kg): 111.00 ± 6.56 mg/dL | Liver Triglycerides ([4]; Table 12, 30 nmol/kg): 39.60 ± 4.71 mg/g tissue | Plasma Cholesterol ([4]; Table 12, 30 nmol/kg): 108.2 ± 13.84 mg/dL | Blood Glucose ([4]; Table 12, 30 nmol/kg): 104.5 ± 5.30 mg/dL | Liver Triglycerides ([4]; Table 12, 100 nmol/kg): 67.96 ± 13.53 mg/g tissue | Plasma Cholesterol ([4]; Table 12, 100 nmol/kg): 108.6 ± 4.83 mg/dL | Blood Glucose ([4]; Table 12, 100 nmol/kg): 105.3 ± 6.16 mg/dL | EC50 (Human GCGR): > 1000 nM | Emax (human GIP-R): 105 ± 2%

CC[C@H](C)[C@H](NC(=O)[C@H](CC(C)C)NC(=O)[C@H](Cc1c[nH]c2ccccc12)NC(=O)[C@H](CCC(N)=O)NC(=O)[C@@H](NC(=O)[C@H](Cc1cccc2ccccc12)NC(=O)[C@H](C)NC(=O)[C@H](CCCCNC(=O)COCCOCCNC(=O)COCCOCCNC(=O)CC[C@H](NC(=O)CCCCCCCCCCCCCCCCCCC(=O)O)C(=O)O)NC(=O)[C@H](CCC(N)=O)NC(=O)[C@H](C)NC(=O)[C@@H](NC(=O)[C@H](CCCCN)NC(=O)[C@H](CC(=O)O)NC(=O)[C@H](CC(C)C)NC(=O)C(C)(C)NC(=O)[C@@H](NC(=O)[C@H](CO)NC(=O)[C@H](Cc1ccc(O)cc1)NC(=O)[C@H](CC(=O)O)NC(=O)[C@H](CO)NC(=O)[C@@H](NC(=O)[C@H](Cc1ccccc1)NC(=O)[C@@H](NC(=O)CNC(=O)[C@H](CCC(=O)O)NC(=O)C(C)(C)NC(=O)[C@@H](N)Cc1ccc(O)cc1)[C@@H](C)O)[C@@H](C)O)[C@@H](C)CC)[C@@H](C)CC)C(C)C)C(=O)N[C@@H](C)C(=O)NCC(=O)NCC(=O)N1CCC[C@H]1C(=O)N[C@@H](CO)C(=O)N[C@@H](CO)C(=O)NCC(=O)N[C@@H](C)C(=O)N1CCC[C@H]1C(=O)N1CCC[C@H]1C(=O)N1CCC[C@H]1C(=O)N[C@@H](CO)C(N)=O [Example 8] (H-Y[Aib]EGTFTSDYSI[Aib]LDKIAQK([AEEA-AEEA-γGlu-C20 diacid])A[1Nal]VQWLIAGGPSSGAPPPS-NH2)
Molar ratio of hGLP-1R/hGIP-R (human GLP-1R [5]; normalized by factor 4.53 from native GIP and GLP-1 binding): 0.99 | Absolute ratio of hGLP-1R/hGIP-R (human GLP-1R [5]; ratio of Ki values): 4.5 | Emax (human GLP-1R [1]): 88.4 ± 2.3% | CL/F [2]: 4.7 mL/h/kg | Cmax [2]: 1000 ng/mL | AUC(0-inf) [2]: 42.8 µg·h/mL | half-life [2]: 23 h | Tmax [2]: 10 h | % max increase of insulin AUC [3]: 324 +/− 30% | ED50 for insulin, rat IVGTT [3]: 6.13 nmol/kg | % Change from starting body weight ([4]; Table 10, 10 nmol/kg): −17.13 ± 0.81 % | % Change from starting fat mass ([4]; Table 10, 10 nmol/kg): −34.20 ± 1.62 % | % Change from starting body weight ([4]; Table 10, 30 nmol/kg): −25.27 ± 0.70 % | % Change from starting fat mass ([4]; Table 10, 30 nmol/kg): −54.24 ± 2.35 % | % Change from starting body weight ([4]; Table 10, 100 nmol/kg): −29.91 ± 2.03 % | % Change from starting fat mass ([4]; Table 10, 100 nmol/kg): −65.23 ± 6.69 % | Plasma Cholesterol ([4]; Table 13, 10 nmol/kg): 158.8 ± 7.57 mg/dL | Blood Glucose ([4]; Table 13, 10 nmol/kg): 114.7 ± 4.61 mg/dL | Plasma Cholesterol ([4]; Table 13, 30 nmol/kg): 139.4 ± 6.83 mg/dL | Blood Glucose ([4]; Table 13, 30 nmol/kg): 117.1 ± 8.26 mg/dL | Plasma Cholesterol ([4]; Table 13, 100 nmol/kg): 127.8 ± 6.34 mg/dL | Blood Glucose ([4]; Table 13, 100 nmol/kg): 125.4 ± 6.30 mg/dL | EC50 (Human GCGR): > 1000 nM | Emax (human GIP-R): 108 ± 4%
